From PMC3515450, “Mechanistic and Structural Understanding of Uncompetitive Inhibitors of Caspase-6” (PLoS ONE, 2012)
Numbering of substitutions follows the chain as printed. pKd: −log10 of the molar value.

Legend:
[1] = biological target: T1, caspase-6/(VEID)2R110 Michaelis complex (Homo sapiens, UniProt P55212, C163A); experiment: SPR co-injection with (VEID)2R110 over apo- and C163A-caspase-6; type: binding; details: co-injected with (VEID)2R110, dissociation of both compound and substrate, read-out: apparent KD
T1 construct: Avi-tagged zymogen C163A-caspase-6 was processed to mature C163A-caspase-6 by the addition of active caspase-3 and caspase-6; made in house
T1 sequence (P55212 24-179 C163A): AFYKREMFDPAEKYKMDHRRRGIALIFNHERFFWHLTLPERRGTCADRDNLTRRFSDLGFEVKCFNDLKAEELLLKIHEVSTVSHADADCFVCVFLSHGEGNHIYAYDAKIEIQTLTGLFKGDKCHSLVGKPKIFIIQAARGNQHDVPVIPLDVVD
T1 sequence (P55212 194-293): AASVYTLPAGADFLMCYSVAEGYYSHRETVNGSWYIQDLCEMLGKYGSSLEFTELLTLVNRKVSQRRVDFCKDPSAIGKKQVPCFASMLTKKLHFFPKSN
Protocol: (§1) For SPR experiments, caspase-6 was cloned to include a C-terminal avi-tag (Avidity) and expressed and purified as above, except that biotin ligase (BirA) was co-expressed during fermentation. […] Avi-tagged zymogen C163A-caspase-6 was processed to mature C163A-caspase-6 by the addition of active caspase-3 and caspase-6. Chip preparation for neutravidin-based capture was performed as previously described using either a Biacore T100 or Biacore 3000 instrument (GE Healthcare). Running buffer was 50 mM HEPES pH 7.2, 100 mM MgSO4, 30 mM NaCl, 1 mM TCEP, 0.01% Triton X-100, 1% PEG-3350, 2.5% DMSO, and the instrument was set for 20 degrees C. After capture one flow cell of apo-caspase-6 was exposed to a continuous flow of 20 µM VEID-FMK. A rise in signal could be detected for the binding/reacting of the VEID-FMK and exposure was continued until no additional rise in response was observed (∼45 minutes) indicating full saturation of all binding sites. There was no observed decrease in signal upon washing, indicating the reaction was irreversible. […] Fluorescent substrates were too limiting in solubility and quantity to be added to the running buffer, so substrates were mixed at a concentration equal to their Kmapp with 3 and injected together over the indicated surfaces. […]

apo-caspase-6 = biological target: T2, apo-caspase-6 (Homo sapiens, UniProt P55212); experiment: SPR binding to apo-caspase-6; details: Rmax locked to control compound
T2 construct: Residues 24-179 and 194-293 from caspase-6 cDNA (Origene) were cloned into pET-24b and pET-23b vectors; 6x histidine tag; made in house; host or cells: E. coli (as above), BirA co-expressed
T2 sequence (P55212 24-179): T1 sequence (P55212 24-179 C163A) with A140C
T2 sequence (P55212 194-293): T1 sequence (P55212 194-293)
Protocol: as §1

**Q.** With COc1ccc(-c2cc(C(=O)N[C@@H](CO)Cc3cccc(C#N)c3)co2)cc1OC [Compound 3] as the compound, how does the pKd [1] read?
**A.** The pKd was ~6.70.

**Q.** What about the pKd (apo-caspase-6) of the same compound?
**A.** The pKd was 3.72.
